System: Herpes simplex Typ 1
Assay: In vivo test: NMRI mice infected intraperitoneally with Herpes simplex type 1, treated i.p. twice daily for 5 days, survival rate
Details: Herpes simplex Typ 1 an der NMRI-Maus
Text: NMRI-Mäuse, spezifisch pathogenfrei, im Gewicht von etwa 15 g wurden intraperitoneal mit Herpes simplex Typ 1 infiziert und anschließend mit den beschriebenen Verbindungen intraperitoneal therapiert. Als Vergleich diente stets Acyclovir (ACV). Die Behandlung erfolgte zweimal täglich über 5 Tage, beginnend nach der Infektion. Der Behandlungserfolg wurde anhand des Krankheitsverlaufes und der Überlebensrate gegenüber den unbehandelten Infektionskontrollen bestimmt. Letztere erhielten anstelle der zu prüfenden Verbindungen eine wasserlösliche Methylhydroxyäthylcellulose (Viskosität […] in 2 %iger Lösung) (^(R)Tylose MH 300 P) appliziert.
Die chemaotherapeutische Wirkung erfindungsgemäßer Verbindungen ist aus Tabelle 1 ersichtlich.

[1] = Dosierung 10 x 0,2 mg/Maus i.p.
[2] = Dosierung 10 x 0,6 mg/Maus i.p.

Compound | Mittlere Überlebensrate x/10 [1] | Mittlere Überlebensrate x/10 [2]
CC(=O)OCC(CN=[N+]=[N-])OCn1cnc2c(=O)[nH]c(N)nc21 (racemic) [Verbindung 9, 9-(1-Azidomethyl-2-acetoxyäthoxymethyl)-guanin] | 9/10 | 9/10
CC(=O)OCC(COC(C)C)OCn1cnc2c(=O)[nH]c(N)nc21 (racemic) [Verbindung 20, 9-(1-Isopropoxymethyl-2-acetoxyäthoxymethyl)-guanin] | 10/10 | 10/10
